Drawing on paper PMC9663854, “AadA36, a novel chromosomal aminoglycoside nucleotidyltransferase from a clinical isolate of Providencia stuartii” (Frontiers in Microbiology, 2022), this text covers Km for two compounds.

The subject of the assay is T1, AadA36.
T1 construct: N-terminal His-tag removed with thrombin
The assay can be described thus: coupled NADPH assay at […] nm (UDP-glucose pyrophosphorylase, phosphoglucomutase, glucose-6-phosphate dehydrogenase), Michaelis-Menten fit. The assay is classed as biochemical, Providencia stuartii. As to conditions: 50 mM HEPES pH 7.5, 10 mM MgCl2, 1 mM ATP, 0.2 mM DTT, substrate 5-150 μM.

What is called Km is the substrate concentration at which the rate is half of its maximum.

As to `CN[C@@H]1[C@H](O)[C@H](NC)[C@H]2O[C@@]3(O)C(=O)C[C@@H](C)O[C@H]3O[C@@H]2[C@H]1O` [spectinomycin], the Km was found to be 49.1 ± 12.8 µM.

Regarding `[H]/N=C(/N)N[C@H]1[C@H](O)[C@@H](O)[C@H](O[C@@H]2O[C@@H](C)[C@](O)(C=O)[C@H]2O[C@@H]2O[C@@H](CO)[C@H](O)[C@@H](O)[C@@H]2NC)[C@@H](N/C(N)=N\[H])[C@@H]1O` [streptomycin], the Km stood at 59.5 ± 14.1 µM.
